{"source": "patent US20060029649A1", "about": "“Stabilized antimicrobial agents” (priority 2004, published 2006)", "experiment": "Thermal stability of IPBC in lubricant mixtures, oven at 180° C., amount determined by HPLC", "assay_type": "physicochemical", "protocol": "Except for example 2 wherein 100% IPBC was used, the antimicrobial agent was admixed with the lubricating agent at room temperature overnight in a roller mixer. Samples of the resulting mixtures were then placed in a conventional oven at 180° C. for the time specified below (5 minutes and 132 minutes). The amount of antimicrobial agent in the sample, initially and after heating, was determined by HPLC. All samples were contained in dark bottles and covered with aluminum foil during heating.\nThe samples were prepared and tested as described in Examples 1-5.", "data": [{"compound": "CCCCNC(=O)OCC#CI", "note": "[Example 2, 3-iodo-2-propynyl butyl carbamate]", "values": [{"measurement": "% Biocide/ 5 min.", "setting": "after 5 minutes in oven at 180° C.", "result": 83, "unit": "%"}, {"measurement": "% Biocide/ 132 min.", "setting": "after 132 minutes in oven at 180° C.", "result": 0, "unit": "%"}, {"measurement": "% Initial Biocide", "setting": "before heating, by weight", "result": 100, "unit": "%"}]}]}
